The target of test [1] is T1, Recombinant STAT3 protein (STAT3(G127-I722)) (Homo sapiens, UniProt P40763).
T1 construct: Recombinant STAT3 protein (STAT3(G127-I722))
Nature of the test: STAT3 Fluorescence Polarization (FP) Assay. It counts as binding. As to conditions: STAT3(G127-I722) 25 nM, probe 5-FAM-GpYLPQTV-NH2 2 nM, 45-minute incubation. In outline: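 Fluorescence polarization after a 45-min room-temperature incubation measured compound displacement of a 2 nM fluorescein-labelled phosphotyrosine peptide (5-FAM-GpYLPQTV-NH2) from 25 nM recombinant STAT3(G127-I722). Buffer was 10 mM HEPES pH 7.4 with 1% DMSO final. IC50s were fitted by nonlinear regression of mP against log concentration.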
Background: In fluorescence polarisation assays a small probe gives low polarisation when free and higher when bound to something large.

The target in test [2] is T2, Recombinant STAT6 protein (STAT6(W123-T658)) (Homo sapiens, UniProt P42226).
T2 construct: Recombinant STAT6 protein (STAT6(W123-T658))
T2 sequence (P42226 123-658): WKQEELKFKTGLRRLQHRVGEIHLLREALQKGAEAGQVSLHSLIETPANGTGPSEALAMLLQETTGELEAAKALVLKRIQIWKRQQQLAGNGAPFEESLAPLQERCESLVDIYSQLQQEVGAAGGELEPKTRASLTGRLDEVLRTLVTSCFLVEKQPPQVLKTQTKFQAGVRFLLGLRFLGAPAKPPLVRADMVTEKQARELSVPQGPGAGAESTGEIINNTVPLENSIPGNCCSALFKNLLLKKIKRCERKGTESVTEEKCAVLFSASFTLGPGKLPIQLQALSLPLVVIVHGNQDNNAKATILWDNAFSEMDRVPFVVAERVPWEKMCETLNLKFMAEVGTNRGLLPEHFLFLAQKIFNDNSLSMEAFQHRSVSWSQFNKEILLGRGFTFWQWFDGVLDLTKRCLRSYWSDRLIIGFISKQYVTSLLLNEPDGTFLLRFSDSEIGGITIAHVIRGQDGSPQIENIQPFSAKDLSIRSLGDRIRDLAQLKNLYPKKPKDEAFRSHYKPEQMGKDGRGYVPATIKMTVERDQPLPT
Nature of the test: STAT6 Fluorescence Polarization (FP) Assay. It counts as binding. The note with it: STAT6(W123-T658) 250 nM, probe 5-FAM-ApYKPFQDLI-NH2 2 nM, 45-minute incubation. In outline:
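Displacement of a fluorescent phosphotyrosine peptide (5-FAM-ApYKPFQDLI-NH2, 2 nM) from STAT6(W123-T658) (250 nM), 1% DMSO, pH 7.4 HEPES buffer. After 45 min at room temperature, polarization (mP) was plotted versus log compound concentration and fitted by nonlinear regression to give IC50.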

The record followed here is US20250179103A1, “6-OXODECAHYDROPYRROLO[1,2-A][1,5]DIAZOCINE AND 6-OXODECAHYDRO-4H-PYRROLO[2,1-D][1,5]THIAZOCINE DERIVATIVES AS STAT3 AND STAT6 MODULATORS FOR THE TREATMENT OF CANCER AND INFLAMMATORY CONDITIONS” (Recludix Pharma, Inc., priority 2022, published 2025).

Each structure is given as a SMILES string. pIC50: −log10 of the molar value. Some results are limits rather than exact numbers.

T1 sequence (P40763 127-722): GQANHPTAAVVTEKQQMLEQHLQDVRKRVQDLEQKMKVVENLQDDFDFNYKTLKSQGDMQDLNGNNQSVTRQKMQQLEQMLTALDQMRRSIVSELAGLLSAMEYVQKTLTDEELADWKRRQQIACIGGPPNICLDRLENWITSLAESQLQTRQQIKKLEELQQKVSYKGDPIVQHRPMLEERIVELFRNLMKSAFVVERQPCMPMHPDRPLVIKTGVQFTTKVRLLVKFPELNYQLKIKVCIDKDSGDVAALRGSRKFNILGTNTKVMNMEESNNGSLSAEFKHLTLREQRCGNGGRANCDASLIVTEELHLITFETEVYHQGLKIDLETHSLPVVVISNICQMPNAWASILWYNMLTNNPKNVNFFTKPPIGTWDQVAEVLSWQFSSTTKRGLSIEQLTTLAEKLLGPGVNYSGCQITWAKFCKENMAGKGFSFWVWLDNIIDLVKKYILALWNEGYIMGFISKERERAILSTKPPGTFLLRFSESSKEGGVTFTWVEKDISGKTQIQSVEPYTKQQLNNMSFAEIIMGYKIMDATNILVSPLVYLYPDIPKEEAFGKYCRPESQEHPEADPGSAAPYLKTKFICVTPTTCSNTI

As to `CC(=O)N1CC[C@H]2CC[C@@H](C(=O)N(C)[C@H]3CN(C(C)=O)C[C@@H]3O)N2C(=O)[C@@H](NC(=O)c2cc3cc(C(F)(F)P(=O)(O)O)ccc3s2)C1` [Compound 183, ((2-(((5S,8S,10aR)-3-acetyl-8-(((3S,4S)-1-acetyl-4-hydroxypyrolidin-3-yl)(methyl)carbamoyl)-6-oxodecaohydrpyrrolo[1,2-a][1,5]diazocin-5-yl)carbamoyl)benzo[b]thiophen-5-yl)difluoromethyl)phosphonic acid], the pIC50 (commonly the IC50 on a negative log10 scale, so that one unit is a factor of ten) in test [1] was 5.00 to 6.00; in test [2], 5.52 to 6.52.
The like results for `CO[C@H]1CN(C(C)=O)C[C@@H]1NC(=O)[C@@H]1CC[C@@H]2CCN(C(C)=O)C[C@H](NC(=O)c3cc4cc(C(F)(F)P(=O)(O)O)ccc4s3)C(=O)N21` [Compound 184, ((2-(((5S,8S,10aR)-3-acetyl-8-(((3S,4S)-1-acetyl-4-methoxypyrrolidin-3-yl)carbamoyl)-6-oxodecahydropyrrolo[1,2-a][1,5]diazocin-5-yl)carbamoyl)benzo[b]thiophen-5-yl)difluoromethyl)phosphonic acid] were, in that order, 6.00 to 7.00 and 5.52 to 6.52.
`CC(=O)N1CC[C@H]2CC[C@@H](C(=O)N(C)c3ccc(C(C)(C)C)cc3)N2C(=O)[C@@H](NC(=O)c2cc3cc(C(F)(F)P(=O)(O)O)ccc3s2)C1` [Compound 185, ((2-(((5S,8S,10aR)-3-acetyl-8-((4-(tert-butyl)phenyl)(methyl)carbamoyl)-6-oxodecahydropyrrolo[1,2-a][1,5]diazocin-5-yl)carbamoyl)benzo[b]thiophen-5-yl)difluoromethyl)phosphonic acid]: the pIC50 in test [1] is 5.00 to 6.00; in test [2] it was 5.52 to 6.52.
As for `CC(=O)N1CC[C@H]2CC[C@@H](C(=O)N3CCC[C@H]3Cc3ccccc3)N2C(=O)[C@@H](NC(=O)c2cc3cc(C(F)(F)P(=O)(O)O)ccc3s2)C1` [Compound 186, ((2-(((5S,8S,10aR)-3-acetyl-8-((S)-2-benzylpyrrolidine-1-carbonyl)-6-oxodecahydropyrrolo[1,2-a][1,5]diazocin-5-yl)carbamoyl)benzo[b]thiophen-5-yl)difluoromethyl)phosphonic acid], the pIC50 is 5.00 to 6.00 in test [1] and at least 6.52 in test [2].
The corresponding values for `CC(=O)N1CC[C@H]2CC[C@@H](C(=O)N(C)c3ccc(Cl)cc3)N2C(=O)[C@@H](NC(=O)c2cc3cc(C(F)(F)P(=O)(O)O)ccc3s2)C1` [Compound 187, ((2-(((5S,8S,10aR)-3-acetyl-8-((4-chlorophenyl)(methyl)carbamoyl)-6-oxodecahydropyrrolo[1,2-a][1,5]diazocin-5-yl)carbamoyl)benzo[b]thiophen-5-yl)difluoromethyl)phosphonic acid] are 5.00 to 6.00 and 5.52 to 6.52.
The like results for `CC(=O)N1CC[C@H]2CC[C@@H](C(=O)N(C)c3ccc(Cl)c(Cl)c3)N2C(=O)[C@@H](NC(=O)c2cc3cc(C(F)(F)P(=O)(O)O)ccc3s2)C1` [Compound 188, ((2-(((5S,8S,10aR)-3-acetyl-8-((3,4-dichlorophenyl)(methyl)carbamoyl)-6-oxodecahydropyrrolo[1,2-a][1,5]diazocin-5-yl)carbamoyl)benzo[b]thiophen-5-yl)difluoromethyl)phosphonic acid] were, in that order, 5.00 to 6.00 and 5.52 to 6.52.
The corresponding values for `CC(=O)N1CC[C@H]2CC[C@@H](C(=O)Nc3ccc4ccnnc4c3)N2C(=O)[C@@H](NC(=O)c2cc3cc(C(F)(F)P(=O)(O)O)ccc3s2)C1` [Compound 189, ((2-(((5S,8S,10aR)-3-acetyl-8-(cinnolin-7-ylcarbamoyl)-6-oxodecahydropyrrolo[1,2-a][1,5]diazocin-5-yl)carbamoyl)benzo[b]thiophen-5-yl)difluoromethyl)phosphonic acid] are 5.00 to 6.00 and 5.52 to 6.52.
As for `CC(=O)N1CC[C@H]2CC[C@@H](C(=O)N(C)c3ccc(N4CCOCC4)cc3)N2C(=O)[C@@H](NC(=O)c2cc3cc(C(F)(F)P(=O)(O)O)ccc3s2)C1` [Compound 190, ((2-(((5S,8S,10aR)-3-acetyl-8-(methyl(4-morpholinophenyl)carbamoyl)-6-oxodecahydropyrrolo[1,2-a][1,5]diazocin-5-yl)carbamoyl)benzo[b]thiophen-5-yl)difluoromethyl)phosphonic acid], the negative logarithm of the IC50 (pIC50) is 5.00 to 6.00 in test [1] and 5.52 to 6.52 in test [2].
Regarding `CC(=O)N1CC[C@H]2CC[C@@H](C(=O)N(C)c3ccc4nnccc4c3)N2C(=O)[C@@H](NC(=O)c2cc3cc(C(F)(F)P(=O)(O)O)ccc3s2)C1` [Compound 191, ((2-(((5S,8S,10aR)-3-acetyl-8-(cinnolin-6-yl(methyl)carbamoyl)-6-oxodecahydropyrrolo[1,2-a][1,5]diazocin-5-yl)carbamoyl)benzo[b]thiophen-5-yl)difluoromethyl)phosphonic acid], the values for the pIC50 in test [1] and in test [2] were 6.00 to 7.00 and at least 6.52, respectively.
As for `CC(=O)N1CC[C@H]2CC[C@@H](C(=O)N3CCC(C(=O)N4CCCCC4)CC3)N2C(=O)[C@@H](NC(=O)c2cc3cc(C(F)(F)P(=O)(O)O)ccc3s2)C1` [Compound 192, ((2-(((5S,8S,10aR)-3-acetyl-6-oxo-8-(4-(piperidine-1-carbonyl)piperidine-1-carbonyl)decahydropyrrolo[1,2-a][1,5]diazocin-5-yl)carbamoyl)benzo[b]thiophen-5-yl)difluoromethyl)phosphonic acid], the pIC50 in test [1] was 5.00 to 6.00; in test [2], 4.52 to 5.52.
As for `CC(=O)N1CC[C@H]2CC[C@@H](C(=O)N3CC[C@H](C(=O)N4CCCCC4)C3)N2C(=O)[C@@H](NC(=O)c2cc3cc(C(F)(F)P(=O)(O)O)ccc3s2)C1` [Compound 193, ((2-(((5S,8S,10aR)-3-acetyl-6-oxo-8-((S)-3-(piperidine-1-carbonyl)pyrrolidine-1-carbonyl)decahydropyrrolo[1,2-a][1,5]diazocin-5-yl)carbamoyl)benzo[b]thiophen-5-yl)difluoromethyl)phosphonic acid], the pIC50 in test [1] is 6.00 to 7.00; in test [2], 5.52 to 6.52.
Turning to `CC(=O)N1CC[C@H]2CC[C@@H](C(=O)N3CC[C@@H](C(=O)N4CCCCC4)C3)N2C(=O)[C@@H](NC(=O)c2cc3cc(C(F)(F)P(=O)(O)O)ccc3s2)C1` [Compound 194, ((2-(((5S,8S,10aR)-3-acetyl-6-oxo-8-((R)-3-(piperidine-1-carbonyl)pyrrolidine-1-carbonyl)decahydropyrrolo[1,2-a][1,5]diazocin-5-yl)carbamoyl)benzo[b]thiophen-5-yl)difluoromethyl)phosphonic acid], the pIC50 in test [1] was 5.00 to 6.00; in test [2], 5.52 to 6.52.
On to `CC(=O)N1CC[C@H]2CC[C@@H](C(=O)N3CC(C(=O)N4CCN(C)CC4)C3)N2C(=O)[C@@H](NC(=O)c2cc3cc(C(F)(F)P(=O)(O)O)ccc3s2)C1` [Compound 195, ((2-(((5S,8S,10aR)-3-acetyl-8-(3-(4-methylpiperazine-1-carbonyl)azetidine-1-carbonyl)-6-oxodecahydropyrrolo[1,2-a][1,5]diazocin-5-yl)carbamoyl)benzo[b]thiophen-5-yl)difluoromethyl)phosphonic acid], for which the pIC50 is 5.00 to 6.00 in test [1] and 5.52 to 6.52 in test [2].
